Laboratory results from the NIST ThermoML archive (doi:10.1021/acs.jced.7b01073).
± gives the expanded uncertainty stated by the source.

Conditions: Liquid, Closed cell (Static) method

| SMILES | vapor or sublimation pressure (283.15 K) | vapor or sublimation pressure (293.15 K) | vapor or sublimation pressure (303.15 K) | vapor or sublimation pressure (313.15 K) | vapor or sublimation pressure (323.15 K) |
| --- | --- | --- | --- | --- | --- |
| C=C(F)C(F)(F)F [2,3,3,3-tetrafluoro-1-propene] | 437.9 ± 7 kPa | 591.5 ± 7.1 kPa | 782.9 ± 7.1 kPa | 1018.2 ± 7.2 kPa | 1302.4 ± 7.2 kPa |
| CCCC [butane] | 148.1 ± 1 kPa | 207.2 ± 1 kPa | 283.4 ± 1.1 kPa | 378.6 ± 1.1 kPa | 496.5 ± 1.2 kPa |
